# Laboratory results reported in ChEMBL document CHEMBL4219196, “Next-generation small molecule therapies for heart failure: 2015 and beyond” (2018).
# Columns and labels:
# Format in all cases: functional
# Homo sapiens [1] = assay: Reduction of cardiovascular events in patient with severe chronic heart failure and left ventricular systolic dysfunction assessed as relative risk reduction at 7.5 mg, po bid for 14 days; set-up: scale not given: the % may be the effect or the level left
# Homo sapiens [2] = assay: Reduction of cardiovascular events in patient with acute MI and coronary revascularization assessed as reduction in heart rate at 7.5 mg, po bid
# Homo sapiens [3] = assay: Reduction of cardiovascular events in patient with severe chronic heart failure assessed as reduction in death at 7.5 mg, po bid for 14 days; set-up: scale not given: the % may be the effect or the level left
# Homo sapiens [4] = assay: Reduction of cardiovascular events in patient with coronary artery disease and left ventricular systolic dysfunction assessed as relative risk reduction at 7.5 mg, po bid; set-up: scale not given: the % may be the effect or the level left
# Homo sapiens [5] = assay: Reduction of cardiovascular events in patient with acute MI and coronary revascularization assessed as reduction in death at 7.5 mg, po bid; set-up: scale not given: the % may be the effect or the level left
# Homo sapiens [6] = assay: Reduction of cardiovascular events in patient with severe chronic heart failure assessed as reduction in heart rate at 7.5 mg, po bid for 14 days
structure (smiles),measurement,setting,value
COc1cc2c(cc1OC)CC(=O)N(CCCN(C)C[C@H]1Cc3cc(OC)c(OC)cc31)CC2 [IVABRADINE],Activity,Homo sapiens [1],18%
same,Activity,Homo sapiens [2],12 bpm
same,Activity,Homo sapiens [3],26%
same,Activity,Homo sapiens [4],<=24%
same,Activity,Homo sapiens [5],31%
same,Activity,Homo sapiens [6],15 bpm
